Data: patent US7745493B2, “Methods of treating tardive dyskinesia and other movement disorders” (priority 1998, dated 2010)

Test system: person two with long-standing TD
Assay: Rey-Osterrieth Complex Figure (Case 1)
Type: in vivo, human
Conditions: ON drug, higher score better
Source text: The following tables report on the results of the neuropsychological tests (Drug I is memantine and Drug II is acamprosate): […]

CC12CC3CC(C)(C1)CC(N)(C3)C2 [memantine]
Rey-Osterrieth Complex Figure Copy Organization: 5
Rey-Osterrieth Complex Figure Copy Presence & Accuracy: 20
Rey-Osterrieth Complex Figure Delayed Retention: −11.1
Rey-Osterrieth Complex Figure Immediate Retention: −55
